ChEMBL document CHEMBL3885861, “Open TG-GATES”

Species: Rattus norvegicus
Assay: Open TG-GATES - Regimen: Daily Repeat
Type: toxicity, organism-based, Sprague-Dawley
Design: regimen Daily Repeat, gender Male, age 6 weeks
Settings: in vivo, po, 400 mg/kg, route gavage, dose level High; for APTT / Bas / Eos / Fbg / Hb / Ht / Lym / MCH / MCHC / MCV / Mono / Neu / PT / Plat / RBC / Ret / WBC: tissue Blood; for KIDNEY_L / KIDNEY_R / KIDNEY_TOTAL: tissue Kidney; for LIVER: tissue Liver; for A/G / ALP / ALT / AST / BUN / CRE / Ca / Cl / DBIL / GLC / IP / K / LDH / Na / PL / RALB / TBIL / TC / TG / TP / gamma-GTP: tissue Plasma

Structure (SMILES): Cc1cccc(C)c1OCC(C)N (configuration not stated) [MEXILETINE]
- TERMINAL_BW (72 h, time 3 day): 229.5 g
- APTT (72 h, time 3 day): 21.1 s
- Bas (72 h, time 3 day): 0%
- Eos (72 h, time 3 day): 1%
- Fbg (72 h, time 3 day): 337.4 mg/dL
- Hb (72 h, time 3 day): 13.2 g/dL
- Ht (72 h, time 3 day): 40.8%
- Lym (72 h, time 3 day): 76.6%
- MCH (72 h, time 3 day): 19.9 pg
- MCHC (72 h, time 3 day): 32.5%
- MCV (72 h, time 3 day): 61.3 fL
- Mono (72 h, time 3 day): 2.2%
- Neu (72 h, time 3 day): 19.6%
- PT (72 h, time 3 day): 15.8 s
- Plat (72 h, time 3 day): 111.4 x10_4/uL
- RBC (72 h, time 3 day): 666.8 x10_4/ul
- Ret (72 h, time 3 day): 5.4%
- WBC (72 h, time 3 day): 88.4 x10_2/uL
- KIDNEY_L (72 h, time 3 day): 1 g
- KIDNEY_R (72 h, time 3 day): 1.1 g
- KIDNEY_TOTAL (72 h, time 3 day): 2.1 g
- LIVER (72 h, time 3 day): 10.3 g
- A/G (72 h, time 3 day): 1.3
- ALP (72 h, time 3 day): 1772.8 IU/L
- ALT (72 h, time 3 day): 54 IU/L
- AST (72 h, time 3 day): 75.6 IU/L
- BUN (72 h, time 3 day): 13.8 mg/dL
- CRE (72 h, time 3 day): 0.1 mg/dL
- Ca (72 h, time 3 day): 10.5 mg/dL
- Cl (72 h, time 3 day): 106.2 meq/L
- DBIL (72 h, time 3 day): 0 mg/dL
- GLC (72 h, time 3 day): 191.4 mg/dL
- IP (72 h, time 3 day): 7.4 mg/dL
- K (72 h, time 3 day): 4 meq/L
- LDH (72 h, time 3 day): 170 IU/L
- Na (72 h, time 3 day): 142.2 meq/L
- PL (72 h, time 3 day): 155.6 mg/dL
- RALB (72 h, time 3 day): 3.2 g/dL
- TBIL (72 h, time 3 day): 0.008 mg/dL
- TC (72 h, time 3 day): 86 mg/dL
- TG (72 h, time 3 day): 87.4 mg/dL
- TP (72 h, time 3 day): 5.6 g/dL
- gamma-GTP (72 h, time 3 day): 1.4 IU/L
- TERMINAL_BW ([…], time 7 day): 249.3 g
- TERMINAL_BW ([…], time 14 day): 299.7 g
- TERMINAL_BW ([…], time 28 day): 372.4 g
- APTT ([…], time 7 day): 22.2 s
- Bas ([…], time 7 day): 0%
- Eos ([…], time 7 day): 0.4%
- Fbg ([…], time 7 day): 343.8 mg/dL
- Hb ([…], time 7 day): 13.8 g/dL
- Ht ([…], time 7 day): 41.9%
- Lym ([…], time 7 day): 79%
- MCH ([…], time 7 day): 20.1 pg
- MCHC ([…], time 7 day): 32.9%
- MCV ([…], time 7 day): 61 fL
- Mono ([…], time 7 day): 2%
- Neu ([…], time 7 day): 17%
- PT ([…], time 7 day): 16.4 s
- Plat ([…], time 7 day): 111.8 x10_4/uL
- RBC ([…], time 7 day): 687.2 x10_4/ul
- Ret ([…], time 7 day): 4%
- WBC ([…], time 7 day): 107.9 x10_2/uL
- APTT ([…], time 14 day): 21.7 s
- Bas ([…], time 14 day): 0%
- Eos ([…], time 14 day): 1%
- Fbg ([…], time 14 day): 292.2 mg/dL
- Hb ([…], time 14 day): 12.9 g/dL
- Ht ([…], time 14 day): 39.9%
- Lym ([…], time 14 day): 75.8%
- MCH ([…], time 14 day): 20.5 pg
- MCHC ([…], time 14 day): 32.4%
- MCV ([…], time 14 day): 63.2 fL
- Mono ([…], time 14 day): 2.4%
- Neu ([…], time 14 day): 20.6%
- PT ([…], time 14 day): 16.5 s
- Plat ([…], time 14 day): 108.6 x10_4/uL
- RBC ([…], time 14 day): 632.4 x10_4/ul
- Ret ([…], time 14 day): 7.4%
- WBC ([…], time 14 day): 62.3 x10_2/uL
- APTT ([…], time 28 day): 23.2 s
- Bas ([…], time 28 day): 0%
- Eos ([…], time 28 day): 1%
- Fbg ([…], time 28 day): 334.4 mg/dL
- Hb ([…], time 28 day): 15.5 g/dL
- Ht ([…], time 28 day): 45.2%
- Lym ([…], time 28 day): 76%
- MCH ([…], time 28 day): 19.1 pg
- MCHC ([…], time 28 day): 34.3%
- MCV ([…], time 28 day): 55.6 fL
- Mono ([…], time 28 day): 2.4%
- Neu ([…], time 28 day): 19.4%
- PT ([…], time 28 day): 16.1 s
- Plat ([…], time 28 day): 101.2 x10_4/uL
- RBC ([…], time 28 day): 813.6 x10_4/ul
- Ret ([…], time 28 day): 2.4%
- WBC ([…], time 28 day): 104.8 x10_2/uL
- KIDNEY_L ([…], time 7 day): 1.1 g
- KIDNEY_R ([…], time 7 day): 1.1 g
- KIDNEY_TOTAL ([…], time 7 day): 2.3 g
- KIDNEY_L ([…], time 14 day): 1.3 g
- KIDNEY_R ([…], time 14 day): 1.3 g
- KIDNEY_TOTAL ([…], time 14 day): 2.6 g
- KIDNEY_L ([…], time 28 day): 1.5 g
- KIDNEY_R ([…], time 28 day): 1.5 g
- KIDNEY_TOTAL ([…], time 28 day): 3 g
- LIVER ([…], time 7 day): 11.5 g
- LIVER ([…], time 14 day): 13.9 g
- LIVER ([…], time 28 day): 16.7 g
- A/G ([…], time 7 day): 1.2
- ALP ([…], time 7 day): 1505.6 IU/L
- ALT ([…], time 7 day): 50.2 IU/L
- AST ([…], time 7 day): 76 IU/L
- BUN ([…], time 7 day): 18 mg/dL
- CRE ([…], time 7 day): 0.2 mg/dL
- Ca ([…], time 7 day): 10.9 mg/dL
- Cl ([…], time 7 day): 104.6 meq/L
- DBIL ([…], time 7 day): 0 mg/dL
- GLC ([…], time 7 day): 180.6 mg/dL
- IP ([…], time 7 day): 7.2 mg/dL
- K ([…], time 7 day): 4.2 meq/L
- LDH ([…], time 7 day): 130.4 IU/L
- Na ([…], time 7 day): 143 meq/L
- PL ([…], time 7 day): 168.4 mg/dL
- RALB ([…], time 7 day): 3.1 g/dL
- TBIL ([…], time 7 day): 0.004 mg/dL
- TC ([…], time 7 day): 85.6 mg/dL
- TG ([…], time 7 day): 138.2 mg/dL
- TP ([…], time 7 day): 5.7 g/dL
- gamma-GTP ([…], time 7 day): 1.2 IU/L
- A/G ([…], time 14 day): 1.1
- ALP ([…], time 14 day): 1631.8 IU/L
- ALT ([…], time 14 day): 70.2 IU/L
- AST ([…], time 14 day): 97.6 IU/L
- BUN ([…], time 14 day): 19.4 mg/dL
- CRE ([…], time 14 day): 0.2 mg/dL
- Ca ([…], time 14 day): 10.4 mg/dL
- Cl ([…], time 14 day): 105.8 meq/L
- DBIL ([…], time 14 day): 0 mg/dL
- GLC ([…], time 14 day): 185 mg/dL
- IP ([…], time 14 day): 7.1 mg/dL
- K ([…], time 14 day): 4.4 meq/L
- LDH ([…], time 14 day): 185.4 IU/L
- Na ([…], time 14 day): 141 meq/L
- PL ([…], time 14 day): 182.6 mg/dL
- RALB ([…], time 14 day): 3.1 g/dL
- TBIL ([…], time 14 day): 0 mg/dL
- TC ([…], time 14 day): 88 mg/dL
- TG ([…], time 14 day): 186.8 mg/dL
- TP ([…], time 14 day): 5.9 g/dL
- gamma-GTP ([…], time 14 day): 2.2 IU/L
- A/G ([…], time 28 day): 1.1
- ALP ([…], time 28 day): 1359 IU/L
- ALT ([…], time 28 day): 43.6 IU/L
- AST ([…], time 28 day): 70 IU/L
- BUN ([…], time 28 day): 18.2 mg/dL
- CRE ([…], time 28 day): 0.2 mg/dL
- Ca ([…], time 28 day): 10.5 mg/dL
- Cl ([…], time 28 day): 104.2 meq/L
- DBIL ([…], time 28 day): 0 mg/dL
- GLC ([…], time 28 day): 183.8 mg/dL
- IP ([…], time 28 day): 6.6 mg/dL
- K ([…], time 28 day): 4.3 meq/L
- LDH ([…], time 28 day): 144.6 IU/L
- Na ([…], time 28 day): 142.2 meq/L
- PL ([…], time 28 day): 180.4 mg/dL
- RALB ([…], time 28 day): 3.1 g/dL
- TBIL ([…], time 28 day): 0.01 mg/dL
- TC ([…], time 28 day): 91.4 mg/dL
- TG ([…], time 28 day): 162.6 mg/dL
- TP ([…], time 28 day): 6.1 g/dL
- gamma-GTP ([…], time 28 day): 1.8 IU/L
